Measured values as given in patent USRE48461E1, “Modulation of androgen receptor expression” (Ionis Pharmaceuticals, Inc., priority 2012, dated 2021).
Oligonucleotides are written 5' to 3', each unit as a sugar letter and its base; * is a phosphorothioate linkage, no mark a phosphodiester; rarer units and linkages stand in square brackets, end groups in braces. Plain capitals give the bases only. k = constrained ethyl (cEt); [5mC] = 5-methylcytosine; d = 2'-deoxy (DNA)

Assays:
Type in all cases: cell-based, human
[1] = tested on: total AR mRNA; assay: Total (full-length) AR mRNA in C4-2B MR cells, free uptake; conditions: free uptake, 24 hrs
Summary of the method: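 Cells grown in RPMI1640 with 10% FBS received antisense oligonucleotides at 0.04, 0.20, 1.00 and 5.00 μM in the medium by free uptake, no transfection agent. After 24 hrs, total AR mRNA quantified by real-time qPCR with primer probe set RTS3559.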

[2] = tested on: TMPRSS2 mRNA; assay: TMPRSS2 expression in VCaP cells; conditions: RNAiMax, 48 hrs
[3] = tested on: LNCaP cells; assay: LNCaP cell proliferation, ASO in combination with MDV3100 (Example 20); conditions: for Proliferation (% untreated control) in LNCaP without MDV-3100: 5 days
Experimental: LNCaP cells were plated at 1,000 cells per well. […] ISIS 549148 was included as a negative control. […] After a treatment period of 5 days, the proliferative capacity of the cancer cells was measured with CellTiter 96® AQueous One or CellTiter-Glo® Solution Cell Proliferation kit (Promega), following the manufacturer's instructions. […]

[4] = tested on: C4-2 cells; assay: C4-2 cell proliferation (complete or CSS+DHT medium); conditions: 5 days; for Proliferation (% untreated control): C4-2 cells
Experimental: After a treatment period of 5 days in complete medium or CSS+1 nM DHT medium, the proliferative capacity of the cancer cells was measured with using CellTiter 96® AQueous One Solution or CellTiter-Glo® Cell Proliferation kit (Promega), following the manufacturer's instructions. […] The proliferative capacity of cells cultured in CSS medium without DHT is 17% of untreated control levels.

[5] = tested on: PSA mRNA; assay: PSA expression in VCaP cells; conditions: RNAiMax, 48 hrs
[6] = tested on: prostate-specific antigen (PSA) mRNA; assay: PSA mRNA levels in LMR20 cells; conditions: with or without DHT/R1881
Experimental: LMR20 cells were plated at 1,500 cells per well in phenol red-free medium with CSS. […] Results are presented in Tables 43-45 as mRNA levels expressed as a percentage of the baseline values. mRNA levels may be lowered or increased after treatment.

[7] = tested on: TMPRSS2 mRNA; assay: TMPRSS2 expression in 22RV1 cells; conditions: RNAiMax, 48 hrs
Summary of the method: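 In 22RV1 cells, full-length AR, AR-V7, PSA and TMPRSS2 RNA measured after 48 h compound incubation. Complete-medium format used 1,000 cells/well; CSS+DHT format used 2,000 cells/well cultured 16 h in CSS medium, with 1 nM DHT added after 4 h.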

[8] = tested on: AR mRNA; assay: AR mRNA levels in LMR20 cells (with/without DHT or R1881); conditions: with or without DHT/R1881
Experimental: LMR20 cells were plated at 1,500 cells per well in phenol red-free medium with CSS.

[9] = tested on: full length AR mRNA; assay: Full-length AR RNA in VCaP cells (complete, CSS+DHT medium); conditions: RNAiMax, 48 hrs
Experimental: Cells were plated at 10,000 cells per well. […] After an incubation period of 48 hrs, RNA levels of full length AR, the V7 variant, PSA and TMPRSS2 were measured.
After an incubation period of 48 hrs, RNA levels of full length AR, the V7 variant, PSA and TMPRSS2 were measured. The data is presented in Tables 108 expressed as percent expression of gene levels compared to the untreated control.
Cells were plated at 15,000 cells per well and cultured in CSS media for 16 hours. […] After 4 hrs, 1 nM DHT was added. […] After an incubation period of 48 hrs, RNA levels of AR, PSA and TMPRSS2 were measured.

549372 (kA*kA*kG*dT*dT*dG*dT*dA*dG*dT*dA*dG*dT*k[5mC]*kG*k[5mC]) [compound 549372]
Percent inhibition of full-length AR mRNA in C4-2B MR cells ([1]; 0.04 μM): 35% | Percent inhibition of full-length AR mRNA in C4-2B MR cells ([1]; 0.20 μM): 47% | Percent inhibition of full-length AR mRNA in C4-2B MR cells ([1]; 1.00 μM): 88% | Percent inhibition of full-length AR mRNA in C4-2B MR cells ([1]; 5.00 μM): 91%

TTGATTTAATGGTTGC [ISIS 560131] (MOE and (S)-cEt gapmer chemistry, further chemistry not given here) [targets intron 1]
Percent inhibition of TMPRSS2 expression ([2]; CSS + DHT medium, 1.34 nM): 0% | Percent inhibition of TMPRSS2 expression ([2]; CSS + DHT medium, 4.0 nM): 21% | Percent inhibition of TMPRSS2 expression ([2]; CSS + DHT medium, 13.4 nM): 49% | Percent inhibition of TMPRSS2 expression ([2]; CSS + DHT medium, 40 nM): 57% | Percent inhibition of TMPRSS2 expression ([2]; complete medium, 1.34 nM): 0% | Percent inhibition of TMPRSS2 expression ([2]; complete medium, 4.0 nM): 0% | Percent inhibition of TMPRSS2 expression ([2]; complete medium, 13.4 nM): 0% | Percent inhibition of TMPRSS2 expression ([2]; complete medium, 40 nM): 4% | Proliferation (% untreated control) in LNCaP with 0.08 μM MDV-3100 ([3]; ASO dose 0.04 μM + 0.08 μM MDV-3100): 59 % untreated control | Proliferation (% untreated control) in LNCaP with 0.4 μM MDV-3100 ([3]; ASO dose 0.04 μM + 0.4 μM MDV-3100): 50 % untreated control | Proliferation (% untreated control) in LNCaP with 2.0 μM MDV-3100 ([3]; ASO dose 0.04 μM + 2.0 μM MDV-3100): 42 % untreated control | Proliferation (% untreated control) in LNCaP with […] MDV-3100 ([3]; ASO dose 0.04 μM + […] MDV-3100): 71 % untreated control | Proliferation (% untreated control) in LNCaP without MDV-3100 ([3]; ASO dose 0.04 μM): 76 % untreated control | Proliferation (% untreated control) in LNCaP with 0.08 μM MDV-3100 ([3]; ASO dose 0.08 μM + 0.08 μM MDV-3100): 99 % untreated control | Proliferation (% untreated control) in LNCaP with 0.4 μM MDV-3100 ([3]; ASO dose 0.08 μM + 0.4 μM MDV-3100): 68 % untreated control | Proliferation (% untreated control) in LNCaP with 2.0 μM MDV-3100 ([3]; ASO dose 0.08 μM + 2.0 μM MDV-3100): 45 % untreated control | Proliferation (% untreated control) in LNCaP with […] MDV-3100 ([3]; ASO dose 0.08 μM + […] MDV-3100): 103 % untreated control | Proliferation (% untreated control) in LNCaP without MDV-3100 ([3]; ASO dose 0.08 μM): 106 % untreated control | Proliferation (% untreated control) in LNCaP with 0.08 μM MDV-3100 ([3]; ASO dose 0.2 μM + 0.08 μM MDV-3100): 48 % untreated control | Proliferation (% untreated control) in LNCaP with 0.4 μM MDV-3100 ([3]; ASO dose 0.2 μM + 0.4 μM MDV-3100): 40 % untreated control | Proliferation (% untreated control) in LNCaP with 2.0 μM MDV-3100 ([3]; ASO dose 0.2 μM + 2.0 μM MDV-3100): 38 % untreated control | Proliferation (% untreated control) in LNCaP with […] MDV-3100 ([3]; ASO dose 0.2 μM + […] MDV-3100): 49 % untreated control | Proliferation (% untreated control) in LNCaP without MDV-3100 ([3]; ASO dose 0.2 μM): 50 % untreated control | Proliferation (% untreated control) in LNCaP with 0.08 μM MDV-3100 ([3]; ASO dose 1.0 μM + 0.08 μM MDV-3100): 27 % untreated control | Proliferation (% untreated control) in LNCaP with 0.4 μM MDV-3100 ([3]; ASO dose 1.0 μM + 0.4 μM MDV-3100): 26 % untreated control | Proliferation (% untreated control) in LNCaP with 2.0 μM MDV-3100 ([3]; ASO dose 1.0 μM + 2.0 μM MDV-3100): 23 % untreated control | Proliferation (% untreated control) in LNCaP with […] MDV-3100 ([3]; ASO dose 1.0 μM + […] MDV-3100): 25 % untreated control | Proliferation (% untreated control) in LNCaP without MDV-3100 ([3]; ASO dose 1.0 μM): 26 % untreated control | synergy with MDV3100 ([3]; LNCaP cells): synergistic with MDV3100 | cell proliferation inhibited, combination ([3]; LNCaP cells, 0.04 μM ASO in combination with 0.08 μM MDV3100): 41% | inhibited cell proliferation, ASO alone ([3]; LNCaP cells, ASO alone at 0.04 μM): 24% | Proliferation (% untreated control) ([4]; CSS + DHT medium, 0.04 μM): 106 % untreated control | Proliferation (% untreated control) ([4]; CSS + DHT medium, 0.2 μM): 94 % untreated control | Proliferation (% untreated control) ([4]; CSS + DHT medium, 1 μM): 47 % untreated control | Proliferation (% untreated control) ([4]; CSS + DHT medium, 5.0 μM): 31 % untreated control | Proliferation (% untreated control) ([4]; complete medium, 0.04 μM): 104 % untreated control | Proliferation (% untreated control) ([4]; complete medium, 0.2 μM): 82 % untreated control | Proliferation (% untreated control) ([4]; complete medium, 1 μM): 70 % untreated control | Proliferation (% untreated control) ([4]; complete medium, 5.0 μM): 51 % untreated control | proliferation of C4-2 cells ([4]; complete medium or CSS+1 nM DHT): reduced proliferation of the cells in a dose dependent manner compared to the control | Percent inhibition of PSA expression ([5]; CSS + DHT medium, 1.34 nM): 0% | Percent inhibition of PSA expression ([5]; CSS + DHT medium, 4.0 nM): 35% | Percent inhibition of PSA expression ([5]; CSS + DHT medium, 13.4 nM): 69% | Percent inhibition of PSA expression ([5]; CSS + DHT medium, 40 nM): 73% | Percent inhibition of PSA expression ([5]; complete medium, 1.34 nM): 2% | Percent inhibition of PSA expression ([5]; complete medium, 4.0 nM): 24% | Percent inhibition of PSA expression ([5]; complete medium, 13.4 nM): 35% | Percent inhibition of PSA expression ([5]; complete medium, 40 nM): 46% | PSA mRNA levels in LMR20 cells [6]: reduced PSA levels and TMPRSS2 more extensively than the LNA gapmer ISIS 554221 or MDV3100 | Percent inhibition of TMPRSS2 expression ([7]; CSS + DHT medium, 1.34 nM): 39% | Percent inhibition of TMPRSS2 expression ([7]; CSS + DHT medium, 4.0 nM): 50% | Percent inhibition of TMPRSS2 expression ([7]; CSS + DHT medium, 13.4 nM): 59% | Percent inhibition of TMPRSS2 expression ([7]; complete medium, 1.34 nM): 7% | Percent inhibition of TMPRSS2 expression ([7]; complete medium, 4.0 nM): 3% | Percent inhibition of TMPRSS2 expression ([7]; complete medium, 13.4 nM): 19% | Percent inhibition of TMPRSS2 expression ([7]; complete medium, 40 nM): 32% | AR mRNA levels in LMR20 cells [8]: reduced AR mRNA levels in LMR20 cells, treated with or without either AR agonist, in a dose dependent manner relative to the baseline | Percent inhibition of full-length AR ([9]; CSS medium, 1.34 nM): 12% | Percent inhibition of full-length AR ([9]; CSS medium, 4.0 nM): 16% | Percent inhibition of full-length AR ([9]; CSS medium, 13.4 nM): 37% | Percent inhibition of full-length AR ([9]; CSS medium, 40 nM): 38% | Percent inhibition of full-length AR ([9]; complete medium, 1.34 nM): 0% | Percent inhibition of full-length AR ([9]; complete medium, 4.0 nM): 59% | Percent inhibition of full-length AR ([9]; complete medium, 13.4 nM): 77% | Percent inhibition of full-length AR ([9]; complete medium, 40 nM): 84%
